Experimental data reported in US20260250289A1, “BICYCLIC HETEROCYCLES AND THEIR USE AS WRN INHIBITORS” (Novartis AG, priority 2022, published 2026).

Columns and labels:
[1] = target: T1, WRN helicase (aa N517-P1238) (Homo sapiens, UniProt Q14191); assay: WRN ATPase assay (DNA dependent ATP hydrolysis, ADP-Glo); type: biochemical; details: 3 hours pre-incubation, 300 micromolar ATP, FLAP26 DNA; geometric mean of at least 2
T1 construct: The core helicase motif of the WRN protein (aa N517-P1238) was produced for this assay; His (N); ZZ (N); 3C protease cleavage site (N); made in house; host or cells: Sf21 insect cells (baculovirus; virus and BIICs made in SF9)
T1 sequence (Q14191 517-1238): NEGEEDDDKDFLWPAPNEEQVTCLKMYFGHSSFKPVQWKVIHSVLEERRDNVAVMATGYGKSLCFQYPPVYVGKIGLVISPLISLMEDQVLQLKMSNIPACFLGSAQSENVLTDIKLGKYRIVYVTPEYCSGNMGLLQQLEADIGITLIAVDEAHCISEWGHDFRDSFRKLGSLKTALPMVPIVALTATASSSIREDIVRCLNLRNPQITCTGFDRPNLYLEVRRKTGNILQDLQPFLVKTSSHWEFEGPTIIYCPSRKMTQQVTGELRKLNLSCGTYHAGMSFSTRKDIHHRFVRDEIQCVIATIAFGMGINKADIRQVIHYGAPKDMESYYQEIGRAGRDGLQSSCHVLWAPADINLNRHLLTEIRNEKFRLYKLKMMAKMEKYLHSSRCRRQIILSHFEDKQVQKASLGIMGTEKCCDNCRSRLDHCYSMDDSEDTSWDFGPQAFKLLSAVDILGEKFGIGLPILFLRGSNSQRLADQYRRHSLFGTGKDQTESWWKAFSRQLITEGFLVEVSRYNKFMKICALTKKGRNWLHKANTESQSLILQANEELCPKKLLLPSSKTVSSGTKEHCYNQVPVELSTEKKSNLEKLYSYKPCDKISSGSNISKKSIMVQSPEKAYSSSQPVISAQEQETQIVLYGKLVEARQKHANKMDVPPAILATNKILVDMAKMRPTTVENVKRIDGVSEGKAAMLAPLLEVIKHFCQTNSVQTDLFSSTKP
Excerpt: An ATPase assay was set up to measure the DNA dependent ATP hydrolysis activity of WRN helicase. This assay was used also to assess the inhibition properties of compounds of the invention on DNA dependent WRN ATPase activity.
The core helicase motif of the WRN protein (aa N517-P1238) was produced for this assay (protein production as described above). […] The ADP-Glo assay kit (Promega, Madison, WI) allowing the quantification of ADP produced in ATP hydrolysis reactions was used for setting up this assay.
Time course experiments were first performed in order to determine the best enzymatic assay conditions (including buffer conditions, reaction time and concentrations of protein, ATP and DNA substrates). A typical reaction consists of 10 nM WRN protein, 0.2 nM FLAP26, and 300 micromolar ATP in the following assay buffer: 30 mM Tris pH7.5, 2 mM MgCl2, 0.02% BSA, 50 mM NaCl, 0.1% pluronic F127 prepared in DNAse free water.
To evaluate the inhibition properties of compounds of the invention, serial dilutions were prepared in DMSO (10 half log dilutions from a 10 mM DMSO solution). […] The reaction was stopped with the addition of 5 microliters of the first ADP-Glo reagent and incubated for one hour to remove the excess amount of ATP. Afterwards, 10 microliters of ATP detection reagent was added and incubated for an additional hour before reading. Luminescence output was recorded using Tecan 1000 reader, with 5 minutes delay before reading. Each concentration of compound was tested in duplicates in the assay plate.
Following normalization of activity values for the wells to % inhibition (% inhibition=[(high control-sample)/(high control-low control)]×100), IC50 fitting was carried out from the duplicate determinations present on each plate according to [4]. Data analysis can also be carried out using commercially available software designed to derive IC50 values using 4-parameter fits (e.g. GraphPad Prism, XL fit). The reported IC50 values are the geometrical means of at least 2 independent replicates.

[2] = tested on: DLD1-WRN-KO cells; assay: Proliferation assay DLD1-WRN-KO (CellTiterGlo, off-target effects); type: cell-based; details: 96 hours, geometric mean of at least 2
Procedure: The WRN-knockdown insensitive colon carcinoma cell line DLD-1 (RRID: CVCL_0248) was obtained from the Korean Cell Line Bank (KCLB), and used to generate a derivative in which the endogenous WRN gene copies were knocked out by CRISPR-mediated editing using standard CRISPR methods. The resulting cell line, DLD1-WRN-KO, was used to assess potential off-target compound effects. […]
Three replicate plates were prepared for each compound treatment condition. In addition, one plate (termed “day 0”) was prepared to quantify the number of viable cells at the time of compound addition. Following overnight incubation at 37° C. in a humidified 5% CO2 atmosphere, eight 3-fold serial dilutions of a given compound stock (obtained at a concentration of 10 mM in DMSO and stored at 4° C.) were dispensed directly into each of the triplicate assay plates using a HP 300D non-contact Digital Dispenser (TECAN). The final concentration of DMSO was normalized to 0.1% in all wells. 96 hours after compound addition, cellular ATP levels as a surrogate for cell viability was assessed following addition of 50 microliters CellTiterGlo (Promega Cat #G7573) reagent and luminescence quantification on a MPLEX multi-mode plate-reader (TECAN) following a 10 minute incubation at room temperature. The number of viable cells in the “day 0” plate were quantified identically on the day of compound addition.
For data analysis, the assay background signal that was determined in wells containing medium, but no cells, was subtracted from all other data points prior to further calculations. The extent of growth inhibition and potential cell kill was assessed by comparing the ATP levels (measured using CellTiterGlo, Promega) in compound-treated cells with those present at the time of compound addition. […] 100%, 0% and −100% signify absence of growth inhibition, growth stasis, and complete cell kill, respectively. Compound concentrations leading to half-maximal growth inhibition (GI50) and residual cell viability at the highest tested compound concentration (Data (cmax), expressed in percent) were routinely calculated. Data analysis can also be carried out using commercially available software designed to derive IC50 values using 4-parameter fits (e.g. GraphPad Prism, XL fit). The reported GI50 values are the geometrical means of at least 2 independent replicates.

[3] = tested on: SW48 cells; assay: Proliferation assay SW48 (CellTiterGlo); type: cell-based; details: Homo sapiens, SW48, 96 h, SW48 colon carcinoma cells, 96 hours, CellTiterGlo; geometric mean of at least 2; read-out: Proliferation Assay SW48 GI50
Excerpt: The colon carcinoma cell lines SW48 (RRID: CVCL_1724), HCT 116 (RRID: CVCL_0291) and SNU-407 (RRID: CVCL_5058) were obtained from ATCC. The WRN-knockdown insensitive colon carcinoma cell line DLD-1 (RRID: CVCL_0248) was obtained from the Korean Cell Line Bank (KCLB), and used to generate a derivative in which the endogenous WRN gene copies were knocked out by CRISPR-mediated editing using standard CRISPR methods. The resulting cell line, DLD1-WRN-KO, was used to assess potential off-target compound effects.
SW48, SNU-407 and DLD1-WRN-KO cells were cultured in growth medium composed of RPMI-1640 (Amimed Cat #1-41F22-1), 2 mM L-Glutamine (Amimed Cat #5-10K50), 10 mM HEPES (Gibco Cat #15630-056), 1 mM sodium pyruvate (Amimed Cat #5-60F00-H), 1× Penicillin-Streptomycin (Amimed Cat #4-01F00-H) and 10% fetal calf serum (Amimed Cat #2-01F30-G, Lot #LB11566P). HCT 116 cells were cultured in growth medium composed of McCoys 5A (Amimed catalog #1-18F01-1), 2 mM L-Glutamine (Amimed Cat #5-10K50), 1× Penicillin-Streptomycin (Amimed Cat #4-01F00-H) and 10% fetal calf serum (Amimed Cat #2-01F30-G, Lot #LB11566P). All cells were maintained at 37° C. in a humidified 5% CO2 incubator.
Following filtration through a Steriflip-NY 20 μm filter (Millipore Cat #SCNY00020), trypsinized cells were seeded in 100 microliters growth medium at 2,000 (SW48) or 1,500 (SNU-407, DLD1-WRN-KO, HCT 116) cells/well into white, clear-bottom 96-well plates (Costar Cat #3903). Three replicate plates were prepared for each compound treatment condition. In addition, one plate (termed “day 0”) was prepared to quantify the number of viable cells at the time of compound addition. Following overnight incubation at 37° C. in a humidified 5% CO2 atmosphere, eight 3-fold serial dilutions of a given compound stock (obtained at a concentration of 10 mM in DMSO and stored at 4° C.) were dispensed directly into each of the triplicate assay plates using a HP 300D non-contact Digital Dispenser (TECAN). The final concentration of DMSO was normalized to 0.1% in all wells. 96 hours after compound addition, cellular ATP levels as a surrogate for cell viability was assessed following addition of 50 microliters CellTiterGlo (Promega Cat #G7573) reagent and luminescence quantification on a MPLEX multi-mode plate-reader (TECAN) following a 10 minute incubation at room temperature. The number of viable cells in the “day 0” plate were quantified identically on the day of compound addition.
For data analysis, the assay background signal that was determined in wells containing medium, but no cells, was subtracted from all other data points prior to further calculations. The extent of growth inhibition and potential cell kill was assessed by comparing the ATP levels (measured using CellTiterGlo, Promega) in compound-treated cells with those present at the time of compound addition. To this end, the following conditional concept was programmatically applied in HELIOS, an in-house software applying a multi-step decision tree to arrive at optimal concentration response curve fits (Gubler et al, SLAS DOI: 10.1177/2472555217752140) to calculate % growth (% G) for each compound-treated well: % G=(T−V0)/V0))*100 when T<V0, and % G=(T−V0)/(V−V0)))*100 when T≥V0, where V0 is the viability level at time of compound addition, while V and T represent vehicle-control and compound-treated viability levels, respectively, at the end of the compound incubation. 100%, 0% and −100% signify absence of growth inhibition, growth stasis, and complete cell kill, respectively. Compound concentrations leading to half-maximal growth inhibition (GI50) and residual cell viability at the highest tested compound concentration (Data (cmax), expressed in percent) were routinely calculated. Data analysis can also be carried out using commercially available software designed to derive IC50 values using 4-parameter fits (e.g. GraphPad Prism, XL fit). […]

Compound	IC50 [1] [µM]	GI50 [2] [µM]	GI50 [3] [µM]
CC(=O)N1CCN(c2c(C)n(CC(=O)Nc3ccc(C(F)(F)F)nc3Cl)c3nc(C4=CCOCC4)nn3c2=O)CC1 [Example 98, 2-(6-(4-acetylpiperazin-1-yl)-2-(3,6-dihydro-2H-pyran-4-yl)-5-methyl-7-oxo-[1,2,4]triazolo[1,5-a]pyrimidin-4(7H)-yl)-N-(2-chloro-6-(trifluoromethyl)pyridin-3-yl)acetamide]	1	> 10	6
CC(=O)N1CCN(c2c(C)n(CC(=O)Nc3ccc(S(F)(F)(F)(F)F)cc3)c3nc(C4=CCCCO4)nn3c2=O)CC1 [Example 127, 2-(6-(4-acetylpiperazin-1-yl)-2-(3,4-dihydro-2H-pyran-6-yl)-5-methyl-7-oxo-[1,2,4]triazolo[1,5-a]pyrimidin-4(7H)-yl)-N-(4-(pentafluoro-16-sulfaneyl)phenyl)acetamide]	0.02	7	> 10
Cc1c(C2CCN(C(=O)c3c(F)ccc(F)c3O)CC2)c(=O)n2nc(C3=CCOCC3)nc2n1CC(=O)Nc1ccc(C(F)(F)F)cc1 [Example 136, 2-(6-(1-(3,6-difluoro-2-hydroxybenzoyl)piperidin-4-yl)-2-(3,6-dihydro-2H-pyran-4-yl)-5-methyl-7-oxo-[1,2,4]triazolo[1,5-a]pyrimidin-4(7H)-yl)-N-(4-(trifluoromethyl)phenyl)acetamide]	0.02	> 10	0.5
CC(=O)N1CCN(c2c(C)n(CC(=O)Nc3cc(F)c(Cl)cc3Cl)c3nc(C4=CCOCC4)nn3c2=O)CC1 [Example 97, 2-(6-(4-acetylpiperazin-1-yl)-2-(3,6-dihydro-2H-pyran-4-yl)-5-methyl-7-oxo-[1,2,4]triazolo[1,5-a]pyrimidin-4(7H)-yl)-N-(2,4-dichloro-5-fluorophenyl)acetamide]	1	> 10	4
CCc1c(N2CCN(C(=O)c3c(O)ccc4cccnc34)CC2)c(=O)n2nc(C3=CCOCC3)nc2n1CC(=O)Nc1ccc(C(F)(F)F)cc1 [Example 14, 2-(2-(3,6-dihydro-2H-pyran-4-yl)-5-ethyl-6-(4-(7-hydroxyquinoline-8-carbonyl)piperazin-1-yl)-7-oxo-[1,2,4]triazolo[1,5-a]pyrimidin-4(7H)-yl)-N-(4-(trifluoromethyl)phenyl)acetamide]	0.04	> 10	0.2
CC(=O)N1CCN(c2c(C)n(CC(=O)Nc3ccc(C(F)(F)F)cc3)c3nc(C4=CCOCC4)nn3c2=O)CC1 [Example 69, 2-(6-(4-acetylpiperazin-1-yl)-2-(3,6-dihydro-2H-pyran-4-yl)-5-methyl-7-oxo-[1,2,4]triazolo[1,5-a]pyrimidin-4(7H)-yl)-N-(4-(trifluoromethyl)phenyl)acetamide]	0.5	> 10	4
CC(=O)N1CCN(c2c(C)n(CC(=O)Nc3ccc(C(F)(F)F)c(F)c3)c3nc(C4=CCOCC4)nn3c2=O)CC1 [Example 90, 2-(6-(4-acetylpiperazin-1-yl)-2-(3,6-dihydro-2H-pyran-4-yl)-5-methyl-7-oxo-[1,2,4]triazolo[1,5-a]pyrimidin-4(7H)-yl)-N-(3-fluoro-4-(trifluoromethyl)phenyl)acetamide]	0.6	> 10	4
Cc1c(N2CCN(C(=O)NNC(=O)C(F)(F)F)CC2)c(=O)n2nc(C3=CCOCC3)nc2n1CC(=O)Nc1ccc(C(F)(F)F)cc1 [Example 165, 2-(2-(3,6-dihydro-2H-pyran-4-yl)-5-methyl-7-oxo-6-(4-(2-(2,2,2-trifluoroacetyl)hydrazine-1-carbonyl)piperazin-1-yl)-[1,2,4]triazolo[1,5-a]pyrimidin-4(7H)-yl)-N-(4-(trifluoromethyl)phenyl)acetamide]	0.09	–	> 10
Cc1c(N2CCN(C(=O)c3cc(F)ccc3O)CC2)c(=O)n2nc(N3CCOCC3)nc2n1CC(=O)Nc1ccc(C(F)(F)F)cc1 [Example 151, 2-(6-(4-(5-fluoro-2-hydroxybenzoyl)piperazin-1-yl)-5-methyl-2-morpholino-7-oxo-[1,2,4]triazolo[1,5-a]pyrimidin-4(7H)-yl)-N-(4-(trifluoromethyl)phenyl)acetamide]	0.2	–	4
